Key:
AmpKR2 [1] = target: AmpKR2 (Streptomyces nodosus, UniProt Q93NW7); assay: X-ray crystal structure, […] Å, co-crystallised; assay type: binding; conditions: ternary complex with 2-methyl-3-oxopentanoyl-pantetheine; 3 mM NADP+
AmpKR2 [2] = target: AmpKR2 (Streptomyces nodosus, UniProt Q93NW7, G2883T/Q2892H); assay: X-ray crystal structure, […] Å, co-crystallised; assay type: binding; conditions: ternary complex with 2-methyl-3-oxopentanoyl-pantetheine; 3 mM NADP+

NC(=O)c1ccc[n+]([C@@H]2O[C@H](COP(=O)(O)OP(=O)(O)OC[C@H]3O[C@@H](n4cnc5c(N)ncnc54)[C@H](OP(=O)(O)O)[C@@H]3O)[C@@H](O)[C@H]2O)c1 [NADP^+]
X-ray crystal structure, 1.80 Å, co-crystallised (AmpKR2 [1]): well-defined electron density for NADP^+ and 2-methyl-3-oxopentanoyl-pantetheine was observed in the active sites | X-ray crystal structure, 1.96 Å, co-crystallised (AmpKR2 [2]): both wild type AmpKR2 and its G355T/Q364H mutant
